The values that follow come from PubChem BioAssay (NCI).

Test systems include HCT-116 colon; HOP-62 NSCLC; HOP-92 NSCLC; M14 melanoma; MALME-3M melanoma; OVCAR-4 ovarian; OVCAR-5 ovarian; OVCAR-8 ovarian; SK-MEL-28 melanoma; SN12C renal.
Holding throughout (experiment): NCI-60 cell line screen, 48 h

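Cells were grown in 96-well plates and exposed to each compound for 48 hours at five concentrations; endpoints were interpolated linearly between bracketing concentrations, or set to the highest concentration if not reached. GI50 = concentration required for 50% inhibition of growth. The concentration for full growth arrest is given as TGI.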 Where only a bound is given, the exact number is not on record here.

For `CC1(C)CC23C(=O)N(c4ccccc4)C(=Nc4ccccc4)NC2=CC(C#N)=C(C#N)C3O1` (stereo not given), the TGI in the assay with HCT-116 colon is more than 100 µM; in the assay with HOP-62 NSCLC it was more than 100 µM; in the assay with HOP-92 NSCLC, 52.2 µM; in the assay with M14 melanoma it was more than 100 µM; in the assay with MALME-3M melanoma it was more than 100 µM; with OVCAR-4 ovarian, more than 100 µM. In addition, the TGI in the assay on OVCAR-5 ovarian, in the assay on OVCAR-8 ovarian, with SK-MEL-28 melanoma and in the assay with SN12C renal was more than 100 µM in each case.

For the molecule `CC1=CC2=C(OCO1)C(=O)c1ccccc1C2=O`, the TGI in the assay with HCT-116 colon worked out at 19.6 µM; in the assay on HOP-62 NSCLC, 15.1 µM; in the assay with HOP-92 NSCLC, 23 µM; in the assay with M14 melanoma it was 8.97 µM; with MALME-3M melanoma, 6.48 µM; with OVCAR-4 ovarian, 8.5 µM. The TGI with OVCAR-5 ovarian worked out at 10.8 µM; with OVCAR-8 ovarian, 32.3 µM; in the assay on SK-MEL-28 melanoma, 10.3 µM; in the assay on SN12C renal it was 11.4 µM.

In the case of `CC(=O)O[C@H](C[C@H](C(C)C)N(C)C(=O)[C@@H](NC(=O)[C@H]1CCCCN1C)C(C)C)c1nc(C(=O)N[C@@H](Cc2ccccc2)C[C@H](C)C(=O)O)c(C)s1`, the GI50 was less than 0.0025 µM in the assay with HCT-116 colon; less than 0.0025 µM in the assay on HOP-62 NSCLC; more than 25 µM in the assay on HOP-92 NSCLC; less than 0.0025 µM with M14 melanoma; 4.56 µM in the assay with MALME-3M melanoma; more than 25 µM in the assay with OVCAR-4 ovarian. Besides, the GI50 in the assay with OVCAR-5 ovarian was 0.0085 µM; in the assay on OVCAR-8 ovarian, less than 0.0025 µM; in the assay on SK-MEL-28 melanoma it was less than 0.0025 µM; with SN12C renal, less than 0.0025 µM. In addition, the TGI in the assay with HCT-116 colon, with HOP-62 NSCLC, in the assay with HOP-92 NSCLC, with M14 melanoma, with MALME-3M melanoma and with OVCAR-4 ovarian was more than 25 µM in each case. The TGI with OVCAR-5 ovarian, in the assay with OVCAR-8 ovarian, with SK-MEL-28 melanoma and with SN12C renal was more than 25 µM throughout.

`CCCCCCN(CCCCCC)C(=N)c1ccnc2ccccc12`: the GI50 was 1.94 µM with HCT-116 colon; 10.8 µM with HOP-62 NSCLC; 1.39 µM in the assay with HOP-92 NSCLC; 1.89 µM in the assay on M14 melanoma; 2.25 µM in the assay on MALME-3M melanoma; 5.98 µM with OVCAR-4 ovarian. Also, the GI50 in the assay on OVCAR-5 ovarian is 9.64 µM; with OVCAR-8 ovarian it was 10.4 µM; in the assay with SK-MEL-28 melanoma it was 3.13 µM; with SN12C renal, 7 µM. For the same molecule, the TGI in the assay on HCT-116 colon worked out at 14.1 µM; with HOP-62 NSCLC, 24.2 µM; with HOP-92 NSCLC, 9.22 µM; in the assay with M14 melanoma, 4.56 µM; with MALME-3M melanoma, 5.64 µM; with OVCAR-4 ovarian, 19.6 µM. Moreover, the TGI turned out to be 21.7 µM in the assay with OVCAR-5 ovarian, 24.1 µM in the assay on OVCAR-8 ovarian, 8.6 µM in the assay with SK-MEL-28 melanoma and 21.6 µM in the assay on SN12C renal.

Take `OCCN1CCN(CCO)Cc2ccccc2OCCOc2ccccc2C1`: the TGI in the assay on HCT-116 colon, with HOP-62 NSCLC, in the assay on HOP-92 NSCLC, in the assay on M14 melanoma, in the assay with MALME-3M melanoma and in the assay on OVCAR-4 ovarian was more than 100 µM in each case. The TGI in the assay with OVCAR-5 ovarian, with OVCAR-8 ovarian, in the assay with SK-MEL-28 melanoma and with SN12C renal was more than 100 µM in each case.

As to `O=c1oc2ccc(Cl)cc2c(=O)n1-c1ccc(Cl)cc1F`, the GI50 with HCT-116 colon was 0.442 µM; in the assay with HOP-62 NSCLC, 0.622 µM; with HOP-92 NSCLC, 0.143 µM; in the assay with M14 melanoma it was 0.578 µM; in the assay with MALME-3M melanoma, 0.313 µM; in the assay with OVCAR-4 ovarian, 0.377 µM. The GI50 is 3.83 µM with OVCAR-5 ovarian, 0.721 µM in the assay on OVCAR-8 ovarian, 0.379 µM in the assay on SK-MEL-28 melanoma and 0.431 µM with SN12C renal. Moreover, the TGI is 1.7 µM in the assay on HCT-116 colon; 2.86 µM in the assay on HOP-62 NSCLC; 0.49 µM in the assay with HOP-92 NSCLC; 2.12 µM in the assay with M14 melanoma; 1.55 µM in the assay on MALME-3M melanoma; 78.9 µM with OVCAR-4 ovarian. For the same molecule, the TGI was more than 95 µM in the assay with OVCAR-5 ovarian, more than 21.7 µM with OVCAR-8 ovarian, 2.29 µM in the assay with SK-MEL-28 melanoma and 3.78 µM in the assay on SN12C renal.

For `CS(=O)(=O)CCNCc1ccc(-c2ccc3ncnc(Nc4ccc(OCc5ccccc5)c(C(F)(F)F)c4)c3c2)o1`, the GI50 is 4.27 µM with HCT-116 colon; 6.16 µM in the assay with HOP-62 NSCLC; 4.9 µM in the assay on HOP-92 NSCLC; 5.26 µM with M14 melanoma; 4.57 µM in the assay on MALME-3M melanoma; 10.3 µM with OVCAR-4 ovarian. Moreover, the GI50 in the assay with OVCAR-5 ovarian is 4.87 µM; in the assay on OVCAR-8 ovarian it was 8.39 µM; in the assay with SK-MEL-28 melanoma, 4.43 µM; in the assay on SN12C renal, 5.22 µM. The TGI in the assay with HCT-116 colon was 7.88 µM; in the assay on HOP-62 NSCLC, 15.8 µM; in the assay on HOP-92 NSCLC it was 20.8 µM; in the assay with M14 melanoma it was 10.4 µM; in the assay with MALME-3M melanoma it was 9.53 µM; in the assay on OVCAR-4 ovarian it was more than 25 µM. For the same molecule, the TGI was 12.5 µM with OVCAR-5 ovarian, more than 25 µM in the assay on OVCAR-8 ovarian, 8.83 µM in the assay on SK-MEL-28 melanoma and 12.3 µM with SN12C renal.
